Experimental data reported in patent publication US10259809B2, “Fluorinated imidazo[4,5-C]quinoline derivatives as inhibitors of bromodomain containing proteins” (Trillium Therapeutics Inc., priority 2015, dated 2019).

Experiments:
[1] = system: MV4-11 human AML xenograft; test: MV4-11 subcutaneous human AML xenograft model, efficacy; format: in vivo, NOD SCID mice; settings: PO
Protocol: • Species & Strain: NOD SCID mice • Age: 7-8 week • Total Number: 60 mice plus 40% spare • Sex: Female • Body Weight: 18 to 22 g Animal Maintenance
Groups and treatments started when the mean tumor volume reached 138 mm^3. Based on the tumor volume, mice were randomly assigned to respective groups using a computer-generated randomization procedure.
Each mouse was inoculated subcutaneously on the right flank with MV4-11 tumor cells ([…]) in 0.1 ml of IMDM without serum for tumor development. The treatment started when the mean tumor size reached approximately 138 mm^3. Mice were randomized into groups.
During the course of study, the tumor size was measured twice a week in two dimensions using a caliper, and the volume was expressed in mm^3 using the formula: TV=a×b2/2 where a and b were the long and short diameters of the tumor, respectively. The tumor size was then used for T/C and TGI (tumor growth inhibition) values, which were indicators of anti-tumor effectiveness. T/C was calculated with the formula [(Td−T0)/(Cd−C0)]×100%, TGI is calculated with the formula [1−(Td−T0)/(Cd−C0)]×100%. Td and Cd were the mean tumor volumes (or median tumor volumes) of the treated and control animals, and T0 and C0 were the mean tumor volumes of the treated and control animals at the start of the experiment.

MOLT4 = test: Oncology cell growth assay, MOLT4; format: cell-based, human; settings: MOLT4, acute lymphoid leukemia; gIC50, 72 hours
Protocol: (§1) Human cell lines were cultured in RPMI-1640 containing 10% fetal bovine serum, 1000 viable cells per well were plated in 384-well black flat bottom polystyrene plates (Greiner #781086) in 48 ˜I of culture media. All plates were placed at 5% CO2, 37° C. overnight. The following day one plate was harvested with CeliTiter-Glo (CTG, Promega #G7573) for a time equal to 0 (TO) measurement and compound (20 point titration from 14.7 uM to 7 pM) was added to the remaining plates. The final concentration of DMSO in all wells was 0.15%. Cells were incubated for 72 hours or the indicated time and each plate was developed with CeliTiterGlo reagent using a volume equivalent to the cell culture volume in the wells. Plates were shaken for approximately 2 minutes and chemiluminescent signal was read on the Analyst GT (Molecular Devices) or EnVision Plate Reader (Perkin Elmer).
(§2) Results are expressed as a percent of the TO and plotted against the compound concentration. The TO value was normalized to 100% and represents the number of cells at time of compound addition and the concentration response data were fit with a 4 parameter curve fit using XLfit software (model 205). […] The Ymin-TO value was determined by subtracting the TO value (100%) from the Ymin value (%) determined from the fit of the concentration response curve. […]

TEX = test: Oncology cell growth assay, TEX; format: cell-based, human; settings: AML (acute myeloid leukemia), gIC50, 72 hours
Protocol: as §1, §2

[2] = MV4-11 xenograft model, tolerance (body weight, clinical signs); format: in vivo
Protocol: For routine monitoring, all study animals were monitored not only tumor growth but also behavior such as mobility, food and water consumption (by cage side checking only), body weight (BW), eye/hair matting and any other abnormal effect. Any mortality and/or abnormal clinical signs would be recorded.
Body weights of all animals were measured twice weekly throughout the study.

RPMI-8226 = test: Oncology cell growth assay, RPMI-8226; format: cell-based, human; settings: RPMI-8226, Multiple myeloma, gIC50, 72 hours
Protocol: as §1, §2

MM.1S = test: Oncology cell growth assay, MM.1S; format: cell-based, human; settings: Multiple myeloma, gIC50, 72 hours
Protocol: as §1, §2

MV4-11 = test: Oncology cell growth assay, MV4-11; format: cell-based, human; settings: MV4-11, AML (acute myeloid) leukemia, gIC50, 72 hours
Protocol: as §1, §2

SK-OV-3 = test: Oncology cell growth assay, SK-OV-3; format: cell-based, human; settings: SK-OV-3, Ovarian cancer, gIC50, 72 hours
Protocol: as §1, §2

AML2 = test: Oncology cell growth assay, AML2; format: cell-based, human; settings: AML2, AML (acute myeloid leukemia), gIC50, 72 hours
Protocol: as §1, §2

HL60 = test: Oncology cell growth assay, HL60; format: cell-based, human; settings: HL60, Promyelocytic leukemia, gIC50, 72 hours
Protocol: as §1, §2

[3] = Liver microsome stability, mouse; format: in vitro ADME, mouse (CD-1; settings: male, CD-1, mouse, pooled mouse liver microsomes, 1 μM compound, 0.5 mg/ml microsomes, 37° C., read-out: % recovery Mouse Liver Microsomes (MLM) (30 min)
Protocol: (§3) Working stocks were initially diluted to a concentration of 40.0 μM in 0.1 M potassium phosphate buffer before addition to the reaction vials. Pooled mouse (CD-1, male) or human (50 donors) liver microsomes were utilized at a final concentration of 0.5 mg/ml. Duplicate wells were used for each time point (0 and 30 minutes). Reactions were carried out at 37° C. in a shaker, and the final concentration of DMSO was kept constant at 0.01%. The final volume for each reaction was 100 μL, which includes the addition of an NADPH-Regeneration solution (NRS) mix. This NRS mix was comprised of glucose 6-phosphate dehydrogenase (0.4 U/mL), NADP+ (1.3 mM), MgCl2 (3.3 mM), and glucose 6-phosphate (3.3 mM) in assay mixtures. Upon completion of the 30 minute time point, reactions were terminated by the addition of 1.5-volumes (150 μL) of ice-cold, acetonitrile with 0.5% formic acid and internal standard. Samples were then centrifuged at 4,000 rpm for 10 minutes to remove debris and precipitated protein. Approximately 150 μL of supernatant was subsequently transferred to a new 96 well microplate for LC/MS analysis.
(§4) Narrow-window mass extraction LC/MS analysis was performed for all samples using a Waters Xevo quadrupole time-of-flight (QTof) mass spectrometer and an ACQUITY UPLC system, to determine relative peak areas of parent compound.

BRD3-1 = biological target: T1, BRD3-1 (Homo sapiens, UniProt Q15059); test: BET Bromodomain AlphaScreen assay (Example 9), BRD3-1; format: binding
T1 construct: BRD3-1: Domain 1 of BRD3
T1 sequence (Q15059 34-140 limits assumed): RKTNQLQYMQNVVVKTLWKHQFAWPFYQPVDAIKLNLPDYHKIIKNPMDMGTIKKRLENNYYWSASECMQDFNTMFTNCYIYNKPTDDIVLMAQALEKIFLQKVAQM
Protocol: (§5) The reader assay was a binding assay using the AlphaScreen technology fluorescence energy resonance transfer (FRET) assay. The biotinylated peptide binding to the reader domain of His-tagged protein is monitored by the singlet oxygen transfer from the Streptavidin-coated donor beads to the AlphaScreen Ni-chelate acceptor beads.
(§6) Reaction buffer: 50 mM Hepes, pH7.5, 100 mM NaCl, 0.05% CHAPS, 0.1% BSA, and 1% DMSO (Buffer and DMSO concentration may be different for different reader).
(§7) Biotin-peptide; sequences were different for different targets.
(§8) Reaction Procedure: • 1. Deliver 4× BRD in wells of reaction plate except No BRD control wells. Add buffer instead. • 2. Deliver compounds in 100% DMSO into the BRD mixture by Acoustic technology (Echo550; nanoliter range). Spin down and pre-incubation for 30 min. • 3. Deliver 4× Ligand. Spin and shake. • 4. Incubate for 30 min at room temperature with gentle shaking. • 5. Deliver 4× donor beads. Spin and shake. • 6. Deliver 4× acceptor beads. Spin and shake. Then gentle shaking in the dark for 60 min. • 7.

BRD2-1 = biological target: T2, BRD2-1 (Homo sapiens, UniProt P25440); test: BET Bromodomain AlphaScreen assay (Example 9), BRD2-1; format: binding
T2 construct: BRD2-1: Domain 1 of BRD2
T2 sequence (P25440 74-180 limits assumed): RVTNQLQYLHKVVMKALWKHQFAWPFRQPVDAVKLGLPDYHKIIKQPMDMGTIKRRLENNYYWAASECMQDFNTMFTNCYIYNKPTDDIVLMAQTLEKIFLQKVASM
Protocol: as §5, §6, §7, §8

BRD3-1: Domain 1 of BRD3 = biological target: T3, BRD3-1: Domain 1 of BRD3 (Homo sapiens, UniProt Q15059); test: Bromodomain binding assay (Example 6), BRD3-1
T3 construct: BRD3-1: Domain 1 of BRD3
T3 sequence (Q15059 34-140 limits assumed): as the sequence (Q15059 34-140 limits assumed) above
Protocol: (§9) The binding of the compounds of the application to bromodomains BRD2, BRD3 and BRD4 was assessed using a time resolved fluorescent resonance energy transfer binding assay (Alpha Screen Technology), that measures the binding of an acetylated histone peptide to the bromodomain protein.
(§10) The bromodomain protein, histone peptide and a variable concentration of test compound were incubated together to reach thermodynamic equilibrium.

BRD2-1: Domain 1 of BRD2 = biological target: T4, BRD2-1: Domain 1 of BRD2 (Homo sapiens, UniProt P25440); test: Bromodomain binding assay (Example 6), BRD2-1
T4 construct: BRD2-1: Domain 1 of BRD2
T4 sequence (P25440 74-180 limits assumed): as the sequence (P25440 74-180 limits assumed) above
Protocol: as §9, §10

BRD4-FL = biological target: T5, BRD4-FL (Homo sapiens, UniProt O60885); test: BET Bromodomain AlphaScreen assay (Example 9), BRD4-FL; format: binding
T5 construct: BRD4-FL: Full length BRD4
Protocol: as §5, §6, §7, §8

[4] = biological target: T6, BRD4-FL: Full length BRD4 (Homo sapiens, UniProt O60885); test: Bromodomain binding assay (Example 6), BRD4-FL
T6 construct: BRD4-FL: Full length BRD4
Protocol: as §9, §10

[5] = Liver microsome stability, human; format: in vitro ADME; settings: pooled human liver microsomes (50 donors), 1 μM compound, 0.5 mg/ml microsomes, 37° C., read-out: % recovery Human Liver Microsomes (HLM) (30 min)
Protocol: as §3, §4

GBM cell = settings: in vitro and in vivo; cited from earlier work
ABC DLBCL = settings: combination with drugs targeting B-cell receptor signaling; cited from earlier work
[6] = system: prostate cancer cell lines with activated AR signaling; settings: cited from earlier work
AR target genes = settings: AR-positive cells; cited from earlier work

COc1cc2c(cc1-c1c(C)noc1C)ncc1nc(C3CCOCC3)n([C@H](C)COC(F)F)c12.Cl [2(g)·HCl]
antitumor activity ([1]; 30 mg/kg and 50 mg/kg): significant antitumor activity | antitumor activity ([1]; low-dose 10 mg/kg, QD × 14): moderate antitumor activity | IC50 (MOLT4): 1140 nM | IC50 (TEX): 23 ± 2 nM | body weight loss ([2]; 50 mg/kg PO, during the dosing period): 9.1% | body weight after dose suspension ([2]; 50 mg/kg, after a two days dose suspension on Day 8 and 9): maintained or recovered | IC50 (RPMI-8226): 303 ± 6 nM | IC50 (MM.1S): 17 ± 4 nM | IC50 (MV4-11): 14 ± 7 nM | IC50 (SK-OV-3): 2180 ± 1440 nM | IC50 (AML2): 18 ± 2 nM | IC50 (HL60): 51 ± 3 nM

COc1cc2c(cc1-c1c(C)noc1C)ncc1nc(C3CC3)n([C@H](C)COC(F)F)c12.Cl [2(l), 4-[2-cyclopropyl-1-[(1R)-2-(difluoromethoxy)-1-methyl-ethyl]-8-methoxy-imidazo[4,5-c]quinolin-7-yl]-3,5-dimethyl-isoxazole hydrochloride]
antitumor activity ([1]; 30 mg/kg and 50 mg/kg): significant antitumor activity | IC50 (TEX; Homo sapiens): 52 ± 73 nM | tolerance ([2]; all dose levels (30 and 50 mg/kg PO)): tolerated well | recovery at 30 min, 1 μM [3]: 3% | IC50 (RPMI-8226; Homo sapiens): 109 ± 32 nM | EC50 (BRD3-1): 20.7 nM | EC50 (BRD2-1): 42.2 nM | IC50 (MM.1S; Homo sapiens, MM1.S): 94 ± 14 nM | IC50 (MV4-11; Homo sapiens): 156 ± 43 nM | IC50 (BRD3-1: Domain 1 of BRD3): 21 nM | IC50 (BRD2-1: Domain 1 of BRD2): 42 nM | EC50 (BRD4-FL): 33.1 nM | IC50 (SK-OV-3; Homo sapiens): 360 ± 10 nM | IC50 (AML2; Homo sapiens): 15 ± 1 nM | IC50 [4]: 33 nM | IC50 (HL60; Homo sapiens, HL-60): 179 ± 10 nM | recovery at 30 min, 1 μM [5]: 43.6%

COc1cc2c(cc1-c1c(C)noc1C)ncc1[nH]c(=O)n([C@H](C)c3ccccn3)c12 [I-BET151]
GBM cell proliferation (GBM cell): reduced GBM cell proliferation in vitro and in vivo

Cc1sc2c(c1C)C(c1ccc(Cl)cc1)=N[C@@H](CC(=O)OC(C)(C)C)c1nnc(C)n1-2 [JQ-1]
drug-drug synergy (ABC DLBCL): combined favorably with multiple drugs targeting B-cell receptor signaling | apoptosis and cell cycle arrest [6]: sensitive to JQ1-induced apoptosis and cell cycle arrest | levels of transcription of AR target genes (AR target genes): globally reduced the levels of transcription of AR target genes
